According to PubChem BioAssay AID330 (DTP/NCI, 2004):
Values joined by “and” are separate entries in the source; they are usually repeats but may differ in a detail not shown here. Identical values can stand only once. Toxic doses and inconclusive results are not listed.

Test system: P388 leukemia ip, CD2F1 mice, survival T/C
Test: NCI In Vivo Anticancer Drug Screen. Data for tumor model P388 Leukemia (intraperitoneal) in CD2F1 (CDF1) mice
Conditions: endpoint: median survival time, higher = longer survival
Procedure, shortened: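 Mice carrying the transplanted tumor received test compound or vehicle. Survival was recorded in each group, and the value is the treated-group measurement divided by that of the vehicle-treated control group.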

[1] = dose: 50.0 mg/kg/injection, schedule: Q04DX003 (ip), vehicle: saline with Tween-80
[2] = dose: 50.0 mg/kg/injection, schedule: Q01DX005 (ip), vehicle: saline with Tween-80
[3] = dose: 100.0 mg/kg/injection, schedule: Q01DX005 (ip), vehicle: saline with Tween-80
[4] = dose: 200.0 mg/kg/injection, schedule: Q01DX005 (ip), vehicle: saline with Tween-80
[5] = dose: 100.0 mg/kg/injection, schedule: Q01DX009 (ip), vehicle: saline with Tween-80
[6] = dose: 200.0 mg/kg/injection, schedule: Q01DX009 (ip), vehicle: saline with Tween-80

In the case of `O=C(CCCCCCCCC(=O)Nc1ccccc1)Nc1ccccc1`, the T/C (dose: 50.0 mg/kg/injection, schedule: Q01DX001 (ip), vehicle: saline with Tween-80) is reported as 103 % of control, the T/C (dose: 100.0 mg/kg/injection, schedule: Q01DX001 (ip), vehicle: saline with Tween-80) is reported as 103 % of control and the T/C (dose: 200.0 mg/kg/injection, schedule: Q01DX001 (ip), vehicle: saline with Tween-80) is reported as 100 % of control. For the same compound, the T/C (dose: 400.0 mg/kg/injection, schedule: Q01DX001 (ip), vehicle: saline with Tween-80) was 108 % of control.
With `COc1ccc2c(Nc3ccc(NS(C)(=O)=O)cc3)c3ccccc3nc2c1` the T/C (dose: 0.07 mg/kg/injection, schedule: Q01DX009 (ip), vehicle: saline) was 99 % of control, the T/C (dose: 0.1 mg/kg/injection, schedule: Q01DX009 (ip), vehicle: saline) was 113 % of control and the T/C (dose: 0.15 mg/kg/injection, schedule: Q01DX009 (ip), vehicle: saline) was 116 % of control. The T/C (dose: 0.23 mg/kg/injection, schedule: Q01DX009 (ip), vehicle: saline) was 122 % of control, the T/C (dose: 1.1 mg/kg/injection, schedule: Q04DX003 (ip), vehicle: saline with Tween-80) was 119 % of control and the T/C (dose: 2.5 mg/kg/injection, schedule: Q01DX009 (ip), vehicle: saline with Tween-80) was 164 % of control. For the same compound, the T/C (dose: 5.0 mg/kg/injection, schedule: Q01DX009 (ip), vehicle: saline with Tween-80) was 194 % of control, the T/C (dose: 9.38 mg/kg/injection, schedule: Q01DX009 (ip), vehicle: saline with Tween-80) was 218 % of control and the T/C (dose: 10.0 mg/kg/injection, schedule: Q01DX009 (ip), vehicle: saline with Tween-80) was 270 % of control. For the same compound, the T/C (dose: 13.2 mg/kg/injection, schedule: Q04DX003 (ip), vehicle: saline with Tween-80) was 163 % of control, the T/C (dose: 18.7 mg/kg/injection, schedule: Q01DX009 (ip), vehicle: saline with Tween-80) was 97 % of control and the T/C (dose: 20.0 mg/kg/injection, schedule: Q04DX003 (ip), vehicle: saline with Tween-80) was 168 % of control. The T/C (dose: 22.0 mg/kg/injection, schedule: Q04DX003 (ip), vehicle: saline with Tween-80) was 175 % of control, the T/C (dose: 30.0 mg/kg/injection, schedule: Q04DX003 (ip), vehicle: saline with Tween-80) was 200 % of control and the T/C (dose: 33.0 mg/kg/injection, schedule: Q04DX003 (ip), vehicle: saline with Tween-80) was 204 % of control. The T/C [1] was 216 % of control and the T/C (dose: 75.0 mg/kg/injection, schedule: Q04DX003 (ip), vehicle: saline with Tween-80) was 237 % of control.
`O/N=C\c1ccc(/C=N/O)cc1` was tested, and the T/C [1] was 100 % of control, the T/C (dose: 100.0 mg/kg/injection, schedule: Q04DX003 (ip), vehicle: saline with Tween-80) was 100 % of control and the T/C (dose: 200.0 mg/kg/injection, schedule: Q04DX003 (ip), vehicle: saline with Tween-80) was 95 % of control.
`Clc1nc2cc3c(cc2n2cccc12)oc1ccccc13` was tested, and the T/C (dose: 25.0 mg/kg/injection, schedule: Q01DX005 (ip), vehicle: saline with Tween-80) was 108 % of control, the T/C [2] was 110 % of control and the T/C [3] was 110 % of control. For the same compound, the T/C [4] was 110 % of control.
With `CC1=C(O)C(=O)C=C2C1=CC=C1[C@@]2(C)CCC2(C)[C@@H]3C[C@@H](C)C(=O)C[C@]3(C)CC[C@]12C` (stereo partly drawn) the T/C (dose: 12.5 mg/kg/injection, schedule: Q01DX005 (ip), vehicle: Klucel (hydroxypropylcellulose) (HPC)) was 109 % of control, the T/C (dose: 25.0 mg/kg/injection, schedule: Q01DX005 (ip), vehicle: Klucel (hydroxypropylcellulose) (HPC)) was 101 % of control and the T/C (dose: 50.0 mg/kg/injection, schedule: Q01DX005 (ip), vehicle: Klucel (hydroxypropylcellulose) (HPC)) was 90 % of control. For the same compound, the T/C (dose: 100.0 mg/kg/injection, schedule: Q01DX005 (ip), vehicle: Klucel (hydroxypropylcellulose) (HPC)) was 97 % of control and the T/C (dose: 260.0 mg/kg/injection, schedule: Q01DX005 (ip), vehicle: Klucel (hydroxypropylcellulose) (HPC)) was 97 % of control.
With `CCN=NNc1ccc(C#N)cc1` the T/C (dose: 6.25 mg/kg/injection, schedule: Q01DX009 (ip), vehicle: distilled water + Tween-80) was 104 % of control, the T/C (dose: 12.5 mg/kg/injection, schedule: Q01DX009 (ip), vehicle: distilled water + Tween-80) was 109 % of control and 91 % of control and the T/C (dose: 25.0 mg/kg/injection, schedule: Q01DX009 (ip), vehicle: distilled water + Tween-80) was 119 % of control and 97 % of control. For the same compound, the T/C (dose: 50.0 mg/kg/injection, schedule: Q01DX009 (ip), vehicle: distilled water + Tween-80) was 100 % of control and 123 % of control and the T/C (dose: 100.0 mg/kg/injection, schedule: Q01DX009 (ip), vehicle: distilled water + Tween-80) was 106 % of control.
`COc1cccc2c1C(=O)c1c(O)c3c(c(O)c1C2=O)C[C@@](O)(C(C)O)C[C@@H]3OC1CC(N(Cc2ccccc2)Cc2ccccc2)C(O)C(C)O1` (stereo partly drawn) was tested, and the T/C (dose: 4.7 mg/kg/injection, schedule: Q04DX003 (ip), vehicle: water) was 121 % of control, the T/C (dose: 6.25 mg/kg/injection, schedule: Q01DX009 (ip), vehicle: water) was 165 % of control and the T/C (dose: 12.5 mg/kg/injection, schedule: Q01DX009 (ip), vehicle: water) was 228 % of control and 233 % of control. For the same compound, the T/C (dose: 25.0 mg/kg/injection, schedule: Q01DX009 (ip), vehicle: water) was 97 % of control, the T/C (dose: 25.0 mg/kg/injection, schedule: Q04DX003 (ip), vehicle: water) was 194 % of control and the T/C (dose: 37.5 mg/kg/injection, schedule: Q04DX003 (ip), vehicle: water) was 106 % of control. The T/C (dose: 50.0 mg/kg/injection, schedule: Q04DX003 (ip), vehicle: water) was 233 % of control and the T/C (dose: 75.0 mg/kg/injection, schedule: Q04DX003 (ip), vehicle: water) was 116 % of control.
For `CN1CCC(CNC(=O)CCCCCCCCC(=O)NCC2(c3ccccc3)CCN(C)CC2)(c2ccccc2)CC1`, the T/C (dose: 0.39 mg/kg/injection, schedule: Q01DX009 (ip), vehicle: saline) was 100 % of control, the T/C (dose: 0.78 mg/kg/injection, schedule: Q01DX009 (ip), vehicle: saline) was 96 % of control and the T/C (dose: 1.56 mg/kg/injection, schedule: Q01DX009 (ip), vehicle: saline) was 105 % of control. The T/C (dose: 3.12 mg/kg/injection, schedule: Q01DX009 (ip), vehicle: saline) was 111 % of control.
In the case of `CSc1c(C)n2c3c(cccc13)CCC2`, the T/C (dose: 60.0 mg/kg/injection, schedule: Q01DX005 (ip), vehicle: saline with Tween-80) is reported as 108 % of control, the T/C (dose: 120.0 mg/kg/injection, schedule: Q01DX005 (ip), vehicle: saline with Tween-80) is reported as 96 % of control and the T/C (dose: 240.0 mg/kg/injection, schedule: Q01DX005 (ip), vehicle: saline with Tween-80) is reported as 100 % of control.
`Oc1ccc2ccccc2c1N=Nc1nn[nH]n1` was tested, and the T/C [2] was 99 % of control and the T/C [3] was 106 % of control.
In the case of `CCCCCCCCC(=O)CC`, the T/C [5] is reported as 118 % of control, the T/C (dose: 100.0 mg/kg/injection, schedule: Q04DX003 (ip), vehicle: saline) is reported as 104 % of control and the T/C [6] is reported as 109 % of control. For the same compound, the T/C (dose: 200.0 mg/kg/injection, schedule: Q04DX003 (ip), vehicle: saline) was 100 % of control and the T/C (dose: 400.0 mg/kg/injection, schedule: Q04DX003 (ip), vehicle: saline) was 95 % of control.
For `COC(=O)C12OCC34C(OC(=O)C(OC(=O)C=C(C)C)C13)C(OC(C)=O)C1C(C)=CC(=O)CC1(C)C4C(O)C2O` (stereo not drawn) (tested in a mixture with another compound), the T/C (dose: 13.0 micrograms/kg/injection, schedule: Q01DX009 (ip), vehicle: saline + alcohol) was 96 % of control, the T/C (dose: 25.0 micrograms/kg/injection, schedule: Q01DX009 (ip), vehicle: saline + alcohol) was 97 % of control and the T/C (dose: 50.0 micrograms/kg/injection, schedule: Q01DX009 (ip), vehicle: saline + alcohol) was 100 % of control. The T/C (dose: 100.0 micrograms/kg/injection, schedule: Q01DX009 (ip), vehicle: saline + alcohol) was 101 % of control, the T/C (dose: 190.0 micrograms/kg/injection, schedule: Q01DX009 (ip), vehicle: saline + alcohol) was 102 % of control and the T/C (dose: 380.0 micrograms/kg/injection, schedule: Q01DX009 (ip), vehicle: saline + alcohol) was 102 % of control. For the same compound, the T/C (dose: 750.0 micrograms/kg/injection, schedule: Q01DX009 (ip), vehicle: saline + alcohol) was 106 % of control.
For `CCOc1cc2cc(/C=N/OCC3CO3)c(Cl)nc2cc1OCC` (stereo not drawn), the T/C (dose: 50.0 mg/kg/injection, schedule: Q01DX005 (ip), vehicle: suspension in saline) was 92 % of control, the T/C (dose: 100.0 mg/kg/injection, schedule: Q01DX005 (ip), vehicle: suspension in saline) was 92 % of control and the T/C (dose: 200.0 mg/kg/injection, schedule: Q01DX005 (ip), vehicle: suspension in saline) was 90 % of control.
For `Cc1cn2c(n1)sc1ccccc12`, the T/C [2] was 96 % of control, the T/C [3] was 95 % of control and the T/C [4] was 95 % of control.
For `CCCSCCCCSCCC`, the T/C [5] was 100 % of control and the T/C [6] was 108 % of control.
With `CN(C)C(=S)c1cccc(-c2ccccn2)n1` the T/C (dose: 50.0 mg/kg/injection, schedule: Q04DX003 (ip), vehicle: Klucel (hydroxypropylcellulose) (HPC)) was 95 % of control, the T/C (dose: 100.0 mg/kg/injection, schedule: Q04DX003 (ip), vehicle: Klucel (hydroxypropylcellulose) (HPC)) was 96 % of control and the T/C (dose: 200.0 mg/kg/injection, schedule: Q04DX003 (ip), vehicle: Klucel (hydroxypropylcellulose) (HPC)) was 91 % of control.
